The source of these data is US20130029961A1, “Substituted Heterocyclic Aza Compounds” (Gruenenthal GmbH, priority 2011, published 2013).

As usually defined, the Ki is the dissociation constant of the complex between target and ligand, obtained from inhibition or displacement. As a reminder, the inhibition is the change of the read-out against control, counted positive when it falls.

T1 sequence (Q8NER1 whole entry): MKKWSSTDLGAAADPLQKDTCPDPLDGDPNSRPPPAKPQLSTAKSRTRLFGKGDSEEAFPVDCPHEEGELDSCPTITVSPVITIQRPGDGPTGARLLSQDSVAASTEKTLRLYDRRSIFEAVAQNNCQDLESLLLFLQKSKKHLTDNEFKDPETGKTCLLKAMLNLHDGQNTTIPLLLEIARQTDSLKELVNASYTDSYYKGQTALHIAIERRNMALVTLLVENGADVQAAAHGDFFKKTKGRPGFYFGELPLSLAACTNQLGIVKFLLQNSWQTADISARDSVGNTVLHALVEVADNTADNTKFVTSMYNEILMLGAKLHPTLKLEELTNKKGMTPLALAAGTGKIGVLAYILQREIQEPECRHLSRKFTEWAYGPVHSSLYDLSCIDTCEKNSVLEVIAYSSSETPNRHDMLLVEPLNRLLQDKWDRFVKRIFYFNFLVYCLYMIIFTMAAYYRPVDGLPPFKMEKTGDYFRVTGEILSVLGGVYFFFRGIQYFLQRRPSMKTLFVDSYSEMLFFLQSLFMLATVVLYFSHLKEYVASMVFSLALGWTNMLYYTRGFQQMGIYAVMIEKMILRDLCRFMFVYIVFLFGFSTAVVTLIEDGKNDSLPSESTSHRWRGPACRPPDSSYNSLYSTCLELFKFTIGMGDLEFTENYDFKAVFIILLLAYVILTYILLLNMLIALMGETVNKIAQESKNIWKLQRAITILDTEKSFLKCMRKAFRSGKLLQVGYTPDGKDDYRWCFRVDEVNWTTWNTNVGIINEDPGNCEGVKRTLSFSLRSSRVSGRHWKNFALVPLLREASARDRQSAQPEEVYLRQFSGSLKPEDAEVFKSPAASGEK

One assay has as its target T1, TRPV1 human (Homo sapiens, UniProt Q8NER1).
T1 construct: expressed in transfected cells; host or cells: CHO K1 cells
As to the kind of experiment: Functional FLIPR Ca2+ influx assay on vanilloid receptor 1 (VR1/TRPV1), capsaicin stimulus. The class given is cell-based. The arrangement: key to TRPV1 human (f) CAP, agonist (AG): AG denotes agonist. As to conditions: functional (f), vs capsaicin (CAP); Ki from IC50 by Cheng-Prusoff.
`CC1CCN(c2nc(C(F)(F)F)ccc2CNC(=O)C(C)c2ccc(NCCO)nc2)CC1` (stereo not drawn) [compound 85] gave a Ki of 2 nM. Turning to `CC1CCN(c2nc(C(F)(F)F)ccc2CNC(=O)C(C)c2ccc(NC(=O)c3ccc(Cl)cc3)nc2)CC1` (stereo not drawn) [compound 99], the Ki came out at 9 nM. For the molecule `CC1CCN(c2nc(C(F)(F)F)ccc2CNC(=O)Cc2cccnc2)CC1` [compound 31], the affinity, expressed as Ki, was 6 nM.

As to `CC(C(=O)NCc1ccc(C(F)(F)F)nc1N1CCCCC1)c1cnc(C(=O)Nc2ccc(F)cc2)nc1` (stereo not drawn) [compound 79], the inhibition constant Ki turned out to be 11 nM. Same read-out and setting: then `CC1CCN(c2nc(C(F)(F)F)ccc2CNC(=O)Nc2ccc(OCCO)nc2)CC1` [compound 123], with 11 nM. The molecule `CC1CCN(c2nc(C(F)(F)F)ccc2CNC(=O)Nc2ccc(N3CC[C@H](O)C3)nc2)CC1` [compound 117] showed a Ki of 9 nM. Same read-out and setting: then `CC1CCN(c2nc(C(F)(F)F)ccc2CNC(=O)Cc2cncnc2)CC1` [compound 47], with 38 nM.

On to `CC1CCN(c2nc(C(F)(F)F)ccc2CNC(=O)C(C)c2cnc(C(=O)Nc3ccccc3)nc2)CC1` (stereo not drawn) [compound 76], for which the affinity, expressed as Ki, was 77 nM. In turn, `CC1CCN(c2nc(C(F)(F)F)ccc2CNC(=O)Nc2ccc(N3CCC3)nc2)CC1` [compound 105] showed an inhibitory constant (Ki) of 27 nM. As to `CC1CCN(c2nc(C(F)(F)F)ccc2CNC(=O)Nc2cncc(CO)c2)CC1` [compound 126], the affinity, expressed as Ki, was 26 nM. Same read-out and setting: the value for `CC1CCN(c2nc(C(F)(F)F)ccc2CNC(=O)C(C)c2cnc(NS(C)(=O)=O)c(F)c2)CC1` (stereo not drawn) [compound 96] was 1 nM. Turning to `CC1CCN(c2nc(C(F)(F)F)ccc2CNC(=O)Nc2ccc(N3CC(O)C3)nc2)CC1` [compound 108], the affinity corresponds to a Ki of 12 nM. `CC1CCN(c2nc(C(F)(F)F)ccc2CNC(=O)Cc2cnccn2)CC1` [compound 40] had an inhibition constant Ki of 107 nM.

As for `O=C(NCc1ccc(C(F)(F)F)nc1-c1cncc(Cl)c1)Nc1ccc(NCCO)nc1` [compound 131], the Ki is 29 nM. For the molecule `CCNc1nc(C(F)(F)F)ccc1CNC(=O)C(C)c1cnc(C(=O)Nc2ccc(F)cc2)nc1` (stereo not drawn) [compound 77], the affinity, expressed as Ki, was 80 nM.

As for `CC1CCN(c2nc(C(F)(F)F)ccc2CNC(=O)Nc2ccc(NCCO)nc2)CC1` [compound 86], the Ki came to 1 nM. `CC1CCN(c2nc(C(F)(F)F)ccc2CNC(=O)Cc2ccncn2)CC1` [compound 39] registered an inhibitory constant (Ki) of 11 nM. Turning to `COCCOc1ccc(NC(=O)NCc2ccc(C(F)(F)F)nc2N2CCC(C)CC2)cn1` [compound 124], the Ki came to 4 nM. `CC1CCN(c2nc(C(F)(F)F)ccc2CNC(=O)Nc2ccc(CO)nc2)CC1` [compound 55] returned an inhibitory constant (Ki) of 11 nM. Take `CC(C(=O)NCc1ccc(C(F)(F)F)nc1N1CCCC1)c1cnc(C(=O)Nc2ccc(F)cc2)nc1` (stereo not drawn) [compound 78]: the Ki is 42 nM.

Consider `COc1cc(NC(=O)NCc2ccc(C(F)(F)F)nc2N2CCC(C)CC2)cnc1N1CCC1` [compound 107], for which the affinity, expressed as Ki, was 81 nM. `COc1cc(C(C)C(=O)NCc2ccc(C(F)(F)F)nc2N2CCC(C)CC2)cnc1NS(C)(=O)=O` (stereo not drawn) [compound 97] yielded a Ki of 2 nM. The same measure, in the same setting: the value for `CC(C(=O)NCc1ccc(C(F)(F)F)nc1N1CCOCC1)c1cnc(C(=O)Nc2ccc(F)cc2)nc1` (stereo not drawn) [compound 80] was 60 nM; that for `CC1CCN(c2nc(C(F)(F)F)ccc2CNC(=O)Nc2ccncc2CO)CC1` [compound 128] was 69 nM. The same measure, in the same setting: then `CC1CCN(c2nc(C(F)(F)F)ccc2CNC(=O)Nc2ccc(C(O)CO)nc2)CC1` (stereo not drawn) [compound 129], with 39 nM; and `CC1CCN(c2nc(C(F)(F)F)ccc2CNC(=O)Nc2ccc(CO)cn2)CC1` [compound 127], with 61 nM; and `CC1CCN(c2nc(C(F)(F)F)ccc2CNC(=O)Nc2ccc(N3CCCC3)nc2)CC1` [compound 114], with 12 nM.

Take `Cc1cccc(-c2nc(C(F)(F)F)ccc2CNC(=O)C(C)c2cnc(C(=O)Nc3ccc(F)cc3)nc2)c1` (stereo not drawn) [compound 81]: the Ki is 5 nM. In the case of `CC1CCN(c2nc(C(F)(F)F)ccc2CNC(=O)C(C)c2ccc(N)c(Br)n2)CC1` (stereo not drawn) [compound 84], the affinity, expressed as Ki, was 50 nM. In turn, `COCCNc1ccc(C(C)C(=O)NCc2ccc(C(F)(F)F)nc2N2CCC(C)CC2)cn1` (stereo not drawn) [compound 87] had an inhibition constant (Ki) of 27 nM. In turn, `COCCNc1ccc(NC(=O)NCc2ccc(C(F)(F)F)nc2N2CCC(C)CC2)cn1` [compound 88] had a Ki of 16 nM. In turn, `O=C(NCc1ccc(C(F)(F)F)nc1-c1cccc(F)c1)Nc1ccc(NCCO)nc1` [compound 130] displayed a Ki of 15 nM. `CC1CCN(c2nc(C(F)(F)F)ccc2CNC(=O)Nc2ccc(N3CC[C@@H](O)C3)nc2)CC1` [compound 118] displayed a Ki of 10 nM. Consider `CC1CCN(c2nc(C(F)(F)F)ccc2CNC(=O)Nc2ccnnc2)CC1` [compound 42], for which the Ki came out at 9 nM.

Regarding `O=C(Cc1ccccn1)NCc1ccc(C(F)(F)F)nc1N1CCCC1` [compound 10], affinity was put at a Ki of 73 nM. `CC1CCN(c2nc(C(F)(F)F)ccc2CNC(=O)C(C)c2ccccn2)CC1` (stereo not drawn) [compound 14]: the affinity, expressed as Ki, was 45 nM.

Take `CC1CCN(c2nc(C(F)(F)F)ccc2CNC(=O)C(C)c2cccnc2)CC1` (stereo not drawn) [compound 32]: affinity was put at a Ki of 10 nM. `CC1CCN(c2nc(C(F)(F)F)ccc2CNC(=O)Nc2ccc(N(C)CCO)nc2)CC1` [compound 90] yielded a Ki of 19 nM. In turn, `CC1CCN(c2nc(C(F)(F)F)ccc2CNC(=O)Nc2cnc(N(C)C)c(C(F)(F)F)c2)CC1` [compound 104] showed a Ki of 9 nM. For `COc1cc(NC(=O)NCc2ccc(C(F)(F)F)nc2N2CCC(C)CC2)cnc1N1CCCC1` [compound 116], the Ki was determined as 78 nM. As for `O=C(Cc1ccccn1)NCc1ccc(C(F)(F)F)nc1-c1cccc(Cl)c1` [compound 5], the Ki was 91 nM.

`CC1CCN(c2nc(C(F)(F)F)ccc2CNC(=O)C(C)c2ccc(NC(=O)c3ccccc3)nc2)CC1` (stereo not drawn) [compound 98] showed a Ki of 63 nM.

As for `CC1CCN(c2nc(C(F)(F)F)ccc2CNC(=O)Nc2cnc(CCS(C)(=O)=O)c(F)c2)CC1` [compound 67], the Ki amounted to 6 nM. Same read-out and setting: the value for `CC1CCN(c2nc(C(F)(F)F)ccc2CNC(=O)C(C)c2ccc(N(C)CCO)nc2)CC1` (stereo not drawn) [compound 89] was 53 nM; that for `CC1CCN(c2nc(C(F)(F)F)ccc2CNC(=O)C(C)c2ccc(C(=O)Nc3ccccc3)nc2)CC1` (stereo not drawn) [compound 75] was 57 nM.

`CC1CCN(c2nc(C(F)(F)F)ccc2CNC(=O)Cc2ccccn2)CC1` [compound 13] came in with a Ki of 7 nM.

`CC1CCN(c2nc(C(F)(F)F)ccc2CNC(=O)Nc2ccccn2)CC1` [compound 19] showed an inhibitory constant (Ki) of 35 nM.

For the molecule `COc1ccc(C(C)C(=O)NCc2ccc(C(F)(F)F)nc2N2CCC(C)CC2)cn1` (stereo not drawn) [compound 120], the Ki turned out to be 44 nM.

The assay is the same for the next values; noted with them: inhibition at 1 μM compound, capsaicin (CAP).
In the case of `COCCN(C)c1ccc(NC(=O)NCc2ccc(C(F)(F)F)nc2N2CCC(C)CC2)cn1` [compound 91], the “TRPV1 human (f) CAP, inhibition (as a percentage) @ 1 μM” value worked out at 12% @ 1 μM.

Still in this assay, the particulars now being: inhibition at 5 μM compound, capsaicin (CAP).
On to `O=C(Cc1ccccn1)NCc1ccc(C(F)(F)F)nc1-c1ccc(F)c(Cl)c1` [compound 6], for which the “TRPV1 human (f) CAP, inhibition (as a percentage) @ 5 μM” value amounted to 48% @ 5 μM.

The same assay, now with this note: inhibition at 5 μM compound, capsaicin (CAP); read-out: TRPV1 human (f) CAP, inhibition (as a percentage) @ 5 μM.
Turning to `O=C(Cc1ccccn1)NCc1ccc(C(F)(F)F)nc1N1CCOCC1` [compound 22], the inhibition at 5 µM was found to be 32%. On the same count and under the same terms, then `COc1cccc(-c2nc(C(F)(F)F)ccc2CNC(=O)Cc2ccccn2)c1` [compound 8], with 39%; and `COCCOCc1nc(C(F)(F)F)ccc1CNC(=O)Cc1ccccn1` [compound 24], with 13%.

Turning to `CCCCNc1nc(C(F)(F)F)ccc1CNC(=O)Cc1ccccn1` [compound 9], the inhibition at 5 µM amounted to 23%. Same read-out and setting: then `CC(C(=O)NCc1ccc(C(F)(F)F)nc1N1CCOCC1)c1ccc(NS(C)(=O)=O)nc1` (stereo not drawn) [compound 95], with 34%; and `Cc1cccc(-c2nc(C(F)(F)F)ccc2CNC(=O)Cc2ccccn2)c1` [compound 7], with 18%; and `CC1CCN(c2nc(C(F)(F)F)ccc2CNC(=O)Cc2ncccn2)CC1` [compound 41], with 39%.

The assay is the same for the next values; noted with them: printed in the Ki column instead of a value.
Turning to `CC1CCN(c2nc(C(F)(F)F)ccc2CNC(=O)C(C)c2ccc(C(N)=O)nc2)CC1` (stereo not drawn) [compound 74], the “TRPV1 human (f) CAP, agonist (AG)” value is “AG”. In the case of `CC1CCN(c2nc(C(F)(F)F)ccc2CNC(=O)C(C)c2ccc(Cl)nc2)CC1` (stereo not drawn) [compound 49], the “TRPV1 human (f) CAP, agonist (AG)” value is on record as “AG”.

In the case of `CC1CCN(c2nc(C(F)(F)F)ccc2CNC(=O)Cc2ccncc2)CC1` [compound 38], the “TRPV1 human (f) CAP, agonist (AG)” value is given as “AG”.
